Measured values from patent US7943641B2, “7-((1H-imidazol-4-yl)methyl)-5,6,7,8-tetrahydroquinoline” (Allergan, Inc., priority 2006, dated 2011).
Where a name gives a salt, the structure may show the parent alone.

Assays:
[1] = biological target: T1, α2A adrenergic receptor (Homo sapiens, UniProt P08913); assay: RSAT (Receptor Selection and Amplification Technology) assay, α2A; type: cell-based; conditions: NIH-3T3 cells cotransfected with receptor and G protein
T1 construct: expressed in transfected cells; host or cells: NIH-3T3 cells
T1 sequence (P08913 1-465): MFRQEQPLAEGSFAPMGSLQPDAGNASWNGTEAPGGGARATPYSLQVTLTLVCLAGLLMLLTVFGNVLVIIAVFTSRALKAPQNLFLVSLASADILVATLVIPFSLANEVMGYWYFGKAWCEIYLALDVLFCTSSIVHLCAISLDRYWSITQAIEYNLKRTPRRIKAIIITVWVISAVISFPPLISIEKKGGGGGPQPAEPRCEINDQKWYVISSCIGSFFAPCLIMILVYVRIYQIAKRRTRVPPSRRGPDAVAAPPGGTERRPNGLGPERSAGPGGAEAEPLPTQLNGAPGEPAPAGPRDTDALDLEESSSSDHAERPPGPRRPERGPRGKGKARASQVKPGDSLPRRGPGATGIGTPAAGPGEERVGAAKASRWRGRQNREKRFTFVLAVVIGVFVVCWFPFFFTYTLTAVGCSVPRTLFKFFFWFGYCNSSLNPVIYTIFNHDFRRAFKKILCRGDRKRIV
Procedure: Incubations continue 72-96 hr at 37° C.

[2] = test system: IOP in the hypertensive eye; assay: Telemetry IOP model (telemetrized primate model); type: in vivo, Cynomolgus monkeys (macaca fascicularis)
Procedure: Cynomolgus (macaca fascicularis) monkeys weighing 3-5 kg with unilateral ocular hypertension in the right eye (OD) are used. Sustained elevated IOP is created by circumferential argon laser photocoagulation (Zeiss Visulas 532) of the mid-trabecular meshwork according to the method of Gaasterland and Kupfer (5). IOPs are assessed at T=−0.1, 0, 1, 2, 4, and 6, hours with an optional reading at 24 hours using an applanation pneumatonometer (Model 30 Classic, mentor Co). A drop of proparacaine (Allergan, Inc.) is instilled into the eyes just prior to IOP measurements. Monkeys are chaired and conditioned for tonometry for months before initiation of the study. Results are averaged from the 2 hr to the 6 hr time points (averages for each animal are calculated and the group mean determined) in an effort to simplify and standardize the data and include a comparison of sustained responses. Depending on the design of the study, either a paired or unpaired Student's t test is done. P<0.05 is considered significant.
Telemetry IOP model. Cynomolgus monkeys (3-5 kg) are made unilaterally ocular hypertensive by argon laser as noted above. The telemetry implant procedure is performed following elevation of IOP. Briefly, the scalp is prepared for aseptic surgery, followed by a 4 cm incision and tissue blunt-dissection to form a pocket in the underlying fascia to contain the pressure transducer. The catheter from the transducer is then guided subcutaneously to the orbit, and inserted into the vitreous cavity of the glaucoma eye through a small opening in the pars plana which is sutured closed and fixed with tissue adhesive. Receivers are placed into the animal cages and connected to a computer running Dataquest software for data capture. Animals are housed in a 12 hours light, 12 hours dark cycle: 6:00 AM ON, 6:00 PM OFF. Animals are used in drug studies following recovery from the surgical procedure which takes 2 weeks to 1 month. Dosing is done by transferring animals to restraining chairs. Animals are dosed without the aid of a sedative. […]

Row | Structure (SMILES) | EC50 [1] [nM] | % IOP decrease from baseline in the hypertensive eye ([2]; dose 0.30%) [%] | % IOP decrease from baseline in the hypertensive eye ([2]; dose 0.15%) [%]
1 | c1cnc2c(c1)CCC(Cc1c[nH]cn1)C2 (racemic) [racemic mixture, 7-(1H-Imidazol-4-ylmethyl)-5,6,7,8-tetrahydro-quinoline dihydrochloride] | 3.9 | 30 | –
2 | c1cnc2c(c1)CCC(Cc1c[nH]cn1)C2 (single isomer, unassigned; (+)) [(+) enantiomer, (+)-7-(1H-imidazol-4-ylmethyl)-5,6,7,8-tetrahydro-quinoline dihydrochloride] | 2.9 | – | 30
3 | c1cnc2c(c1)CCC(Cc1c[nH]cn1)C2 (single isomer, unassigned; (-)) [(−) enantiomer, (−) 7-((1H-imidazol-4-yl)methyl)-5,6,7,8-tetrahydroquinoline] | 58.4 | 0 | –
